In patent US8871681B2, “Herbicidal compositions comprising 4-amino-3-chloro-5-fluoro-6-(4-chloro-2-fluoro-3-methoxyphenyl) pyridine-2-carboxylic acid or a derivative thereof and certain sulfonylureas” (Dow AgroSciences LLC, priority 2012, dated 2014):

What was measured:
[1] = tested on: CIRAR (Cirsium arvense, Canada thistle); assay: Post-emergence foliar-applied weed control in cereal crops, greenhouse (Example III); type: in vivo, Cirsium arvense (L.) Scop.; conditions: Cirsium arvense, post-emergence; Table 58 (cereal); foliar-applied; after 20-22 days; 3.75 gai/ha alone; read-out: Weed Control CIRAR Obs
Protocol: Seeds of the desired test plant species were planted in Sun Gro MetroMix® 306 planting mixture, which typically has a pH of 6.0 to 6.8 and an organic matter content of about 30 percent, in plastic pots with a surface area of 103.2 square centimeters (cm^2). When required to ensure good germination and healthy plants, a fungicide treatment and/or other chemical or physical treatment was applied. The plants were grown for 7-36 days in a greenhouse with an approximate 14 hour photoperiod which was maintained at about 18° C. during the day and 17° C. during the night. Nutrients and water were added on a regular basis and supplemental lighting was provided with overhead metal halide 1000-Watt lamps as necessary. The plants were employed for testing when they reached the second or third true leaf stage.
Treatments consisted of the benzyl ester of 4-amino-3-chloro-5-fluoro-6-(4-chloro-2-fluoro-3-methoxy-phenyl)pyridine-2-carboxylic acid (Compound A), formulated as an SC (suspension concentrate), and a second cereal herbicide alone and in combination.
Measured aliquot of benzyl ester of 4-amino-3-chloro-5-fluoro-6-(4-chloro-2-fluoro-3-methoxy-phenyl)pyridine-2-carboxylic acid (Compound A) was placed in 25 milliliter (mL) glass vials and diluted in a volume of 1.25% (v/v) Agri-dex crop oil concentrated to obtain stock solutions. Compound requirements are based upon a 12 mL application volume at a rate of 187 liters per hectare (L/ha). Spray solutions of the second cereal herbicide and experimental compound mixtures were prepared by adding the stock solutions to the appropriate amount of dilution solution to form 12 mL spray solution with active ingredients in two- and three-way combinations. Formulated compounds were applied to the plant material with an overhead Mandel track sprayer equipped with an 8002E nozzle calibrated to deliver 187 L/ha over an application area of 0.503 square meters (m^2) at a spray height of 18 inches (46 cm) above average plant canopy. Control plants were sprayed in the same manner with the solvent blank.
The treated plants and control plants were placed in a greenhouse as described above and watered by sub-irrigation to prevent wash-off of the test compounds. After 20-22 days, the condition of the test plants as compared with that of the control plants was determined visually and scored on a scale of 0 to 100 percent where 0 corresponds to no injury and 100 corresponds to complete kill.
Colby's equation was used to determine the herbicidal effects expected from the mixtures (Colby, S. R. 1967. Calculation of the synergistic and antagonistic response of herbicide combinations. Weeds 15:20-22.).
The following equation was used to calculate the expected activity of mixtures containing two active ingredients, A and B: Expected=A+B−(A×B/100)

[2] = tested on: BRAPP (Brachiaria platyphylla, broadleaf signalgrass); assay: Postemergence foliar-applied weed control, direct seeded rice, greenhouse (Example I); type: in vivo, Brachiaria platyphylla (Griseb.) Nash; conditions: Urochloa platyphylla, post-emergence, 480 h, 20 DAA, read-out: Visual Weed Control (%) Obs
From the text: (§1) Seeds or nutlets of the desired test plant species were planted in a soil matrix prepared by mixing a loam or sandy loam soil (e.g., 28.6 percent silt, 18.8 percent clay, and 52.6 percent sand, with a pH of about 5.8 and an organic matter content of about 1.8 percent) and calcareous grit in an 80 to 20 ratio. The soil matrix was contained in plastic pots with a volume of 1 quart and a surface area of 83.6 square centimeters (cm^2). When required to ensure good germination and healthy plants, a fungicide treatment and/or other chemical or physical treatment was applied. The plants were grown for 8-22 days in a greenhouse with an approximate 14 h photoperiod which was maintained at about 29° C. during the day and 26° C. during the night. Nutrients (Peters Excel® 15-5-15 5-Ca 2-Mg and iron chelate) were applied in the irrigation solution as needed and water was added on a regular basis. Supplemental lighting was provided with overhead metal halide 1000-Watt lamps as necessary. The plants were employed for testing when they reached the first through fourth true leaf stage.
(§2) Treatments consisted of the acid or esters of 4-amino-3-chloro-5-fluoro-6-(4-chloro-2-fluoro-3-methoxy-phenyl)pyridine-2-carboxylic acid (Compound A), each formulated as an SC, and various herbicidal components alone and in combination. Forms of compound A were applied on an acid equivalent basis.
(§3) Other herbicidal components were applied on an active ingredient basis and included acetolactate synthase (ALS)-inhibiting herbicides (sulfonylurea chemical class) azimsulfuron formulated as Gulliver®, bensulfuron-methyl formulated as Londax® 60DF, cyclosulfamuron (technical material), ethoxysulfuron formulated as Sunrice® 15 WDG, flazasulfuron formulated as Katana®, flucetosulfuron formulated as Sukedachi® 1KG G, foramsulfuron formulated as Option®, imazosulfuron formulated as Brazzos® WG, iodosulfuron-methyl-sodium formulated as Hussar®, metsulfuron-methyl formulated as Lorate®, nicosulfuron formulated as Accent®, orthosulfamuron formulated as Strada® WG, primisulfuron-methyl (technical material), propyrisulfuron formulated as Zeta One®, rimsulfuron formulated as Matrix® WG, sulfometuron-methyl formulated as Oust®, and trifloxysulfuron-sodium formulated as Monument® 75WG.
(§4) Treatment requirements were calculated based upon the rates being tested, the concentration of active ingredient or acid equivalent in the formulation, and a 12 mL application volume at a rate of 187 L/ha.
(§5) For treatments comprised of formulated compounds, measured amounts of compounds were placed individually in 25 mL glass vials and diluted in a volume of 1.25% (v/v) Agri-Dex® crop oil concentrated to obtain 12× stock solutions. […] Application solutions were prepared by adding an appropriate amount of each stock solution (e.g., 1 mL) and diluted to the appropriate final concentrations with the addition of 10 mL of an aqueous mixture of 1.25% (v/v) crop oil concentrate so that the final spray solutions contained 1.25+/−0.05% (v/v) Agrcrop oil concentrate.
(§6) For treatments comprised of formulated and technical compounds, weighed amounts of the technical materials were placed individually in 25 mL glass vials and dissolved in a volume of 97:3 v/v acetone/DMSO to obtain 12× stock solutions, and measured amounts of the formulated compounds were placed individually in 25 mL glass vials and diluted in a volume of 1.25% (v/v) crop oil concentrate to obtain 12× stock solutions. […] Application solutions were prepared by adding an appropriate amount of each stock solution (e.g., 1 mL) and diluted to the appropriate final concentrations with the addition of an appropriate amount of an aqueous mixture of 1.5% (v/v) crop oil concentrate so that the final spray solutions contained 1.25% (v/v) crop oil concentrate. […]

[3] = tested on: LEFCH (Leptochloa chinensis, Chinese sprangletop); assay: as above; type: in vivo, Leptochloa chinensis (L.) Nees; conditions: Dinebra chinensis, post-emergence, 480 h, 20 DAA, read-out: Visual Weed Control (%) Obs
From the text: as §1, §2, §3, §4, §5, §6

[4] = tested on: CYPIR (Cyperus iria, rice flatsedge); assay: as above; type: in vivo, Cyperus iria L.; conditions: 20 DAA
From the text: as §1, §2, §3, §4, §5, §6

[5] = tested on: CYPES (Cyperus esculentus, yellow nutsedge); assay: as above; type: in vivo, Cyperus esculentus L.; conditions: 20 DAA
From the text: as §1, §2, §3, §4, §5, §6

[6] = tested on: ECHOR (Echinochloa oryzoides, early watergrass); assay: In-water applied weed control, transplanted paddy rice, greenhouse (Example II); type: in vivo, Echinochloa oryzoides (Ard.) Fritsch
Protocol: (§7) Weed seeds or nutlets of the desired test plant species were planted in puddled soil (mud) prepared by mixing a shredded, non-sterilized mineral soil (50.5 percent silt, 25.5 percent clay, and 24 percent sand, with a pH of about 7.6 and an organic matter content of about 2.9 percent) and water at a 1:1 volumetric ratio. The prepared mud was dispensed in 365 mL aliquots into 16-ounce (oz.) non-perforated plastic pots with a surface area of 86.59 square centimeters (cm^2) leaving a headspace of 3 centimeters (cm) in each pot. Rice seeds were planted in Sun Gro MetroMix® 306 planting mixture, which typically has a pH of 6.0 to 6.8 and an organic matter content of about 30 percent, in plastic plug trays. Seedlings at the second or third leaf stage of growth were transplanted into 860 mL of mud contained in 32-oz. non-perforated plastic pots with a surface area of 86.59 cm^2 4 days prior to herbicide application. The paddy was created by filling the headspace of the pots with 2.5 to 3 cm of water. When required to ensure good germination and healthy plants, a fungicide treatment and/or other chemical or physical treatment was applied. The plants were grown for 4-22 days in a greenhouse with an approximate 14 h photoperiod which was maintained at about 29′C during the day and 26° C. during the night. Nutrients were added as Osmocote® (19:6:12, N:P:K+minor nutrients) at 2 g per 16-oz. pot and 4 g per 32-oz. pot. Water was added on a regular basis to maintain the paddy flood, and supplemental lighting was provided with overhead metal halide 1000-Watt lamps as necessary. The plants were employed for testing when they reached the first through fourth true leaf stage.
(§8) Treatments consisted of the acid or esters of 4-amino-3-chloro-5-fluoro-6-(4-chloro-2-fluoro-3-methoxy-phenyl)pyridine-2-carboxylic acid (compound A) each formulated as an SC and various herbicidal components alone and in combination. Forms of compound A were applied on an acid equivalent basis.
(§9) Other herbicidal components were applied on an active ingredient basis and included acetolactate synthase (ALS)-inhibiting herbicides (sulfonylurea chemical class), azimsulfuron formulated as Gulliver®, bensulfuron-methyl formulated as Londax® 60DF, cyclosulfamuron (technical grade materail), ethoxysulfuron formulated as Sunrice® 15 WDG, flucetosulfuron formulated as Sukedachi® 1KG G, imazosulfuron formulated as Brazzos®, metsulfuron-methyl formulated as Lorate®, nicosulfuron formulated as Accent®, orthosulfamuron formulated as Strada® WG, propyrisulfuron formulated as Zeta One®, and rimsulfuron formulated as Matrix® WG.
(§10) Treatment requirements for each compound or herbicidal component were calculated based upon the rates being tested, the concentration of active ingredient or acid equivalent in the formulation, an application volume of 2 mL per component per pot, and an application area of 86.59 cm^2 per pot.
(§11) For formulated compounds, a measured amount was placed in an individual 100 or 200 mL glass vial and was dissolved in a volume of 1.25% (v/v) Agri-Dex® crop oil concentrate to obtain application solutions.
(§12) For technical grade compounds, a weighed amount was placed in an individual 100 to 200 mL glass vial and was dissolved in a volume of acetone to obtain concentrated stock solutions. […] The concentrated stock solutions obtained were diluted with an equivalent volume of an aqueous mixture containing 2.5% (v/v) crop oil concentrate so that the final application solutions contained 1.25% (v/v) crop oil concentrate.
(§13) Applications were made by injecting with a pipetter appropriate amounts of the application solutions, individually and sequentially, into the aqueous layer of the paddy. Control plants were treated in the same manner with the solvent blank. Applications were made so that all treated plant material received the same concentrations of acetone and crop oil concentrate. […]

[7] = tested on: SCPMA (Bolboschoenus maritimus or Schoenoplectus maritimus, sea clubrush); assay: as above; type: in vivo, Bolboschoenus maritimus (L.) Palla
Protocol: as §7, §8, §9, §10, §11, §12, §13

[8] = tested on: DIGSA (Digitaria sanguinalis, large crabgrass); assay: Postemergence foliar-applied weed control, direct seeded rice, greenhouse (Example I); type: in vivo, Digitaria sanguinalis (L.) Scop.; conditions: 20 DAA
From the text: as §1, §2, §3, §4, §5, §6

[9] = tested on: LEFCH (Leptochloa chinensis, Chinese sprangletop); assay: In-water applied weed control, transplanted paddy rice, greenhouse (Example II); type: in vivo, Leptochloa chinensis (L.) Nees; conditions: Table 43, 17.5 gai/ha alone
Protocol: as §7, §8, §9, §10, §11, §12, §13

[10] = tested on: CYPRO (Cyperus rotundus, purple nutsedge); assay: as above; type: in vivo, Cyperus rotundus L.
Protocol: as §7, §8, §9, §10, §11, §12, §13

COC(=O)c1sccc1S(=O)(=O)NC(=O)Nc1nc(C)nc(OC)n1 [Thifensulfuron-methyl]
pest or weed control at 3.75 g/ha [1]: 35%

COc1cc(OC)nc(NC(=O)NS(=O)(=O)Nc2ccccc2C(=O)N(C)C)n1 [Orthosulfamuron, 2-[[[[[(4,6-dimethoxy-2-pyrimidinyl)amino]carbonyl]amino]sulfonyl]amino]-N,N-dimethylbenzamide]
pest or weed control at 7.5 g/ha ([2]; 7.5 gai/ha): 0% | pest or weed control at 15 g/ha ([2]; 15 gai/ha): 30% | pest or weed control at 7.5 g/ha ([3]; 7.5 gai/ha): 0% | pest or weed control at 15 g/ha ([3]; 15 gai/ha): 0% | Visual Weed Control (%) Obs ([4]; 7.5 gai/ha): 50% | Visual Weed Control (%) Obs ([4]; 15 gai/ha): 75% | Visual Weed Control (%) Obs ([4]; 30 gai/ha): 65% | Visual Weed Control (%) Obs ([5]; 7.5 gai/ha): 0% | Visual Weed Control (%) Obs ([5]; 15 gai/ha): 30% | Visual Weed Control (%) - 21 DAA ECHOR Obs ([6]; Table 46, 15 gai/ha alone): 10% | Visual Weed Control (%) - 20 DAA SCPMA Obs ([7]; Table 45, 60 gai/ha alone): 85% | Visual Weed Control (%) - 20 DAA SCPMA Obs ([7]; Table 46, 60 gai/ha alone): 85%

COc1cc(OC)nc(NC(=O)NS(=O)(=O)c2ncccc2C(=O)N(C)C)n1 [Nicosulfuron, 2-[[[[(4,6-dimethoxy-2-pyrimidinyl)amino]carbonyl]amino]sulfonyl]-N,N-dimethyl-3-pyridinecarboxamide, reference compound]
pest or weed control at 35 g/ha ([3]; 35 gai/ha): 75% | Visual Weed Control (%) Obs ([4]; 8.75 gai/ha): 80% | Visual Weed Control (%) Obs ([8]; 8.75 gai/ha): 30% | Visual Weed Control (%) Obs ([8]; 17.5 gai/ha): 55% | Visual Weed Control (%) Obs ([5]; 8.75 gai/ha): 10% | Visual Weed Control (%) Obs ([5]; 17.5 gai/ha): 60% | Visual Weed Control (%) Obs ([5]; 35 gai/ha): 70% | Visual Weed Control (%) - 20 DAA ECHOR Obs ([6]; Table 43, 17.5 gai/ha alone): 0% | Visual Weed Control (%) - 20 DAA ECHOR Obs ([6]; Table 44, 17.5 gai/ha alone): 0% | Visual Weed Control (%) - 20 DAA ECHOR Obs ([6]; Table 44, 35 gai/ha alone): 50% | Visual Weed Control (%) - 20 DAA LEFCH Obs [9]: 60% | Visual Weed Control (%) - 20 DAA CYPRO Obs ([10]; Table 43, 17.5 gai/ha alone): 30% | Visual Weed Control (%) - 20 DAA CYPRO Obs ([10]; Table 43, 35 gai/ha alone): 70%
